From publication PMC6162693, “Investigation into the Thermal Response and Pharmacological Activity of Substituted Schiff Bases on α-Amylase and α-Glucosidase” (Antioxidants, 2018)
Values after ≈ are worked out from the molar mass of the structure shown. Read-outs that look alike come from different tables or passages of the source.

Columns and labels:
[1] = Radical scavenging over DPPH, ABTS and H2O2 assays; settings: lower limit over the three radical assays; read-out: IC50 values for quenching the radicals (lowest over DPPH, ABTS, H2O2)
Procedure: (§1) The antioxidant activities of Schiff bases (1–9) were determined by DPPH, ABTS^+, H2O2, ferric reducing power assays, and compared with 3,4,5-trihydroxybenzoic acid (10), 5-(1,2-dihydroxyethyl)-3,4-dihydroxyfuran-2(5H)-one (11), and 2-(3,4-dihydroxyphenyl)-3,5,7-trihydroxy-4H-chromen-4-one (12) (as controls).
The scavenging activity of compounds (1–12) was evaluated by adding an ethanolic solution of DPPH (300 μL, 0.05 mM) and incubated for 30 min in the dark. After that, changes in the absorbance of the mixture were measured at 517 nm on a UV-Vis spectrophotometer. […]
A mixture of ABTS (960.2 mg) and potassium persulphate (165.6 mg) was dissolved in 250 mL of distilled water to generate the blue-green ABTS^+ solution. The ABTS solution was stored away in the dark at ambient temperature for 24 h to generate sufficient ABTS radical cation (ABTS^+), then the absorbance was adjusted to 0.9547 with distilled water. […] Changes in concentration of ABTS^+ were measured at 734 nm on a spectrophotometer. […] The IC50 (μM) of the compounds were determined by linear regression analysis, and all analyses were carried out in triplicate. […]
According to the methods of Ruch et al., the H2O2 scavenging activity of compounds (1–12) was evaluated. […] The absorbance of the mixture was measured at 230 nm, thereafter, the %H2O2 scavenging activity (Equation (4)) and IC50 (μM) of the compounds 1–12 was determined. […]

Staphylococcus aureus = test: Broth microdilution antimicrobial assay, S. aureus; type: cell-based; settings: for MBC: Staphylococcus aureus, read-out: MBC S. aureus
Procedure: (§2) Exactly 1.5 mg of sodium;10-oxido-7-oxophenoxazin-10-ium-3-olate was dissolved in 100 mL of distilled water, vortexed, filtered, sterilised, and stored at 4 °C for a maximum of 14 days before being applied as a growth indicator. 1000 μM stock solution of Schiff bases (1–9) was prepared in DMSO.
(§3) Fungi (Aspergillus niger, Candida albicans), Gram-positive bacteria (Staphylococcus aureus, Enterococcus faecalis), and Gram-negative bacteria (Salmonella typhi, Escherichia coli).
(§4) Colonies from a 24 h culture agar plate were collected with a loop and transferred to a tube containing lysogeny broth (LB). The various suspensions were incubated at 37 °C and the size adjusted to 1.5 × 10^6 CFU/mL [27].
(§5) The antimicrobial activity of Schiff bases (1–9), was evaluated using 96-well broth microdilution method as described by de Rapper et al. (2013) and Akhalwaya et al. (2018) with slight modifications. Columns 1–11 was filled 50 µL LB, followed by the addition of 50 µL of Schiff base to column 1. Thereafter, 50 µL of Schiff bases from column 1 was transferred by multichannel pipette to columns 2–10, resulting in 50 µL Schiff bases per well. Column 11 contained 100 µL of diluted standardised inoculum, while Column 12 contained 100 µL of LB as a control to monitor sterility. Then, 50 µL of the microorganism suspension was then added to columns 1–10 and the control column 11. The plates were incubated at 37 °C for 24 h, followed by the addition of 30 µL of growth indicator solution and further incubated for 2 h for the observation of colour change. On completion of incubation, the columns with blue indicator colour were reported as the MIC (µM) values. The columns with a concentration higher than the MIC value were plated on nutrient agar to determine the minimum bactericidal and fungicidal concentrations.

α-amylase = test: α-Amylase inhibitory activity; type: biochemical; settings: Means ×10^2 ± SD from at least three experiments
Procedure: The α-amylase inhibitory activity of Schiff bases (1–9) was evaluated by the method reported by Xiao et al. with slight modifications. Substrate solution is prepared by dissolving 1.0 g of starch in 50 mL of 0.4 M NaOH and heated at 100 °C for 5 min. The substrate solution was adjusted to a neutral pH by the addition of 0.1 M HCl, cooled on crushed ice and made to 100 mL in a standard volumetric flask with distilled water. […] Using a microplate, 40 μL substrate and 20 μL Schiff base solution were mixed, then preincubated at 37 °C for 3 min. Thereafter, 20 μL of 50 μg/mL α-amylase solution was dispensed into each well, and further incubated for 15 min. The reaction was terminated by the addition of 80 μL HCl (0.1 M); followed by 200 μL of 1 mM iodine solution, and the absorbances measured at 650 nm. Inhibitory activity was calculated from Equation (5):(5) α − amylase inhibition (%) = (A2 − A1/A4 − A3)100 where A1 is the absorbance of Schiff base, starch, and α-amylase solution after incubation, A2 is the absorbance of Schiff base and starch solution after incubation, A3 is the absorbance of starch and amylase solution after incubation, and A4 is the absorbance of a starch solution after incubation. Thereafter, the IC50 value was determined from the plot of % inhibition versus concentration.

Enterococcus faecalis = test: Broth microdilution antimicrobial assay, E. faecalis; type: cell-based; settings: for MBC: Enterococcus faecalis, read-out: MBC E. faecalis
Procedure: as §2, §3, §4, §5

Aspergillus niger = test: Broth microdilution antimicrobial assay, A. niger; type: cell-based
Procedure: as §2, §3, §4, §5

Salmonella typhi = test: Broth microdilution antimicrobial assay, S. typhi; type: cell-based; settings: Salmonella enterica, TYPHI, read-out: MBC S. typhi
Procedure: as §2, §3, §4, §5

Candida albicans = test: Broth microdilution antimicrobial assay, C. albicans; type: cell-based
Procedure: as §2, §3, §4, §5

H2O2-scavenging activity = settings: absorbance at 230 nm; mean ± SD (n = 3)
Procedure: as §1
According to the methods of Ruch et al., the H2O2 scavenging activity of compounds (1–12) was evaluated. To 100 µL aliquot of the test compounds was added 0.4 mL of 50 mM phosphate buffer followed by 0.6 mL of 2 mM H2O2 solution prepared in 50 mM phosphate buffer (pH 6.8). The absorbance of the mixture was measured at 230 nm, thereafter, the %H2O2 scavenging activity (Equation (4)) and IC50 (μM) of the compounds 1–12 was determined. All analyses were carried out in triplicate. (4) % H2O2 − scavenging activity = 100⌊(Abs. of H2O2 − Abs. of test compound)/(Abs. of H2O2)⌋

α-glucosidase = test: α-Glucosidase inhibitory activity; type: biochemical; settings: Means ×10^2 ± SD from at least three experiments
Procedure: The inhibitory activity of Schiff bases (1-9) against α-glucosidase was assessed by the method previously described by […] et al. […] Then, approximately 0.2 mL of Schiff base solution was mixed with 1.0 mL of 50 mM sodium phosphate buffer (pH 6.9) and 50 μL of α-glucosidase solution (2 U/mL). Thereafter, incubated at 37 °C for 10 min, followed by the addition of exactly 50 μL of 0.7 mM p-nitrophenyl-α-D-glucopyranoside solution in 50 mM sodium phosphate buffer (pH 6.9) and further incubated for 30 min at 37 °C. The reaction was terminated by the addition of 2.0 mL solution of 0.5 M Na2CO3. 0.3 mL aliquot of the above mixture was mixed with 4.7 mL of distilled water and the absorbance measured at 405 nm. […] (6) α - glucosidase inhibition (%) = (Ae - ASB/Ae)100 where Ae is the absorbance of the enzyme solution after incubation and ASB is the absorbance after incubation of Schiff bases solution. The assay was performed in triplicate.

Escherichia coli = test: Broth microdilution antimicrobial assay, E. coli; type: cell-based; settings: for MBC: Escherichia coli, read-out: MBC E. coli
Procedure: as §2, §3, §4, §5

[2] = ABTS radical cation decolourisation assay; settings: absorbance at 734 nm, 30 min; mean ± SD (n = 3)
Procedure: as §1
A mixture of ABTS (960.2 mg) and potassium persulphate (165.6 mg) was dissolved in 250 mL of distilled water to generate the blue-green ABTS^+ solution. The ABTS solution was stored away in the dark at ambient temperature for 24 h to generate sufficient ABTS radical cation (ABTS^+), then the absorbance was adjusted to 0.9547 with distilled water. Precisely 40 µL solution of the compounds were added to 3 mL ABTS^+ solution and incubated at 298 K for 30 min in the dark. Changes in concentration of ABTS^+ were measured at 734 nm on a spectrophotometer. The degree of ABTS^+ decolourisation was a template for evaluating the percentage proton-donating potential (%PDP) of the test compounds [24]; estimated from Equation (3). The IC50 (μM) of the compounds were determined by linear regression analysis, and all analyses were carried out in triplicate. (3) % PDP = 100⌊(Abs. of ABTS ^+ − Abs. of test compound)/(Abs. of ABTS^+)⌋

[3] = DPPH radical scavenging activity; settings: absorbance at 517 nm, 30 min; mean ± SD (n = 3)
Procedure: as §1
The scavenging activity of compounds (1–12) was evaluated by adding an ethanolic solution of DPPH (300 μL, 0.05 mM) and incubated for 30 min in the dark. After that, changes in the absorbance of the mixture were measured at 517 nm on a UV-Vis spectrophotometer. The percentage radical scavenging activities (%RSA) and half maximal inhibitory concentration (IC50) of the compounds were estimated from Equation (2) and by linear regression analysis, respectively. All studies were carried out in triplicate. (2) % RSA= 100⌊(Abs. of DPPH − Abs. of test compound)/(Abs. of DPPH)⌋

[4] = test system: Fungi (Aspergillus niger, Candida albicans); test: Broth microdilution MIC, antifungal (fungus not specified); type: cell-based; settings: read-out: MIC (antifungal)
Procedure: as §2, §3, §4
The antimicrobial activity of Schiff bases (1–9), was evaluated using 96-well broth microdilution method as described by de Rapper et al. (2013) and Akhalwaya et al. (2018) with slight modifications. Columns 1–11 was filled 50 µL LB, followed by the addition of 50 µL of Schiff base to column 1. Thereafter, 50 µL of Schiff bases from column 1 was transferred by multichannel pipette to columns 2–10, resulting in 50 µL Schiff bases per well. Column 11 contained 100 µL of diluted standardised inoculum, while Column 12 contained 100 µL of LB as a control to monitor sterility. Then, 50 µL of the microorganism suspension was then added to columns 1–10 and the control column 11. […]

[5] = relative to o-hydroxy derivative (8)

Row | Compound | IC50 [1] | MBC (Staphylococcus aureus) | IC50 (α-amylase) | MBC (Enterococcus faecalis) | MFC (Aspergillus niger; read-out: MFC A. niger) | melting point | MBC (Salmonella typhi) | MFC (Candida albicans; read-out: MFC C. albicans) | IC50 (H2O2-scavenging activity) | IC50 (α-glucosidase) | MBC (Escherichia coli) | IC50 [2] | IC50 [3] | MIC [4] | antibacterial activity (growth inhibition), S. aureus (Staphylococcus aureus; [5]) | antibacterial activity (growth inhibition), E. faecalis (Enterococcus faecalis; [5]) | MFC (Aspergillus niger; * = no fungicidal effect at the evaluated concentration, n = 3, read-out: MFC A. niger) | MFC (Candida albicans; 24 h, * = no fungicidal effect at the evaluated concentration, n = 3, read-out: MFC C. albicans) | antibacterial activity (growth inhibition), E. coli (Escherichia coli; [5])
1 | O=[N+]([O-])c1ccc(C=Nc2cc(O)[nH]n2)cc1 [Compound 1, 3-(((4-nitrophenyl)methylidene)amino)-1H-pyrazol-5-ol] | ≥ 290 µM | 4.31 µM (≈ 1 µg/mL) | 420 ± 36 µM | 4.31 µM (≈ 1 µg/mL) | > 4.31 µM | 285 °C | 2.15 µM (≈ 0.499 µg/mL) | > 4.31 µM | 350 ± 5 µM | 540 ± 44 µM | 4.31 µM (≈ 1 µg/mL) | 410 ± 6 µM | 290 ± 9 µM |  |  |  |  |  | 
2 | O=[N+]([O-])c1ccc(C=Nc2c(O)cc(S(=O)(=O)O)c3ccccc23)cc1 [Compound 7, 4-(4-nitrobenzylideneamino)-3-hydroxynaphthalene-1-sulphonic acid] | ≥ 50 µM | > 2.69 µM | 730 ± 16 µM | > 2.69 µM |  | 200 °C | > 2.69 µM |  | 160 ± 90 µM | 961 ± 84 µM | 1.34 µM (≈ 0.499 µg/mL) | 50 ± 5 µM | 200 µM | 0.67 µM (≈ 0.249 µg/mL) | very potent | very potent | 2.69 µM (≈ 1 µg/mL) | 1.53 µM (≈ 0.57 µg/mL) | very potent
